Holding throughout (assay type): cell-based, porcine
In assay [1] the test system is pgEpiSCs. Put plainly: RT-qPCR of marker genes in pgEpiSCs in modified 3i/LAF medium. The note with it: for marker gene mRNA expression after removal of the component: component removed from 3i/LAF medium, qRT-PCR. Here is the method:
Total RNA of pgEpiSCs was extracted using a RNAprep Pure Cell/Bacteria Kit (TIANGEN, DP430), and then reverse transcribed into cDNA using 5× all-in-one RT premix (Abm, G490). PCR was performed using 2× RealStar Green Power Mixture (GenStar, A311-05) on the LightCycler 480 II real-time system (Roche). Comparative CT (2^−ΔΔCT) method was used to analyze the data. ACT was calculated using EF1A as an internal control. Three biological replicates were performed for all experiments. Primers for quantitative real-time PCR were listed in the key resource table.
(§1) Based on the prepared 3i/LAF medium and its culture method in2 above, the requirement of various factors for long-term maintenance in vitro of pgEpiSCs was test by the inventors under the same conditions as in 2 above, except for removing small molecule inhibitors and cytokines from the medium one by one.
(§2) In addition, based on the prepared 3i/LAF medium and its culture method in 2 above, the following tests were also performed by the inventors under the same conditions as in 2 above.
(In qPCR the cycle at which signal appears reflects the starting amount.)

Assay [2] relates to pgEpiSCs. Put plainly: Immunofluorescence of POU5F1 and EOMES in pgEpiSCs in modified 3i/LAF medium. The note with it: component removed from 3i/LAF medium. Here is the method: Cells were washed with DPBS (Gibco, C14190500BT) and fixed with 4% paraformaldehyde at room temperature for 30 minutes, then washed again with DPBS, permeabilized in 0.1% Triton X-100 for 20 minutes, and blocked with 3% BSA for 1 hour. Cells were incubated with the primary antibody diluted with 3% BSA overnight at 4° C. Cells were then washed 3 times with the washing buffer (DPBS containing 0.1% Triton X-100 and 0.1% Tween 20) for 3 minutes each time. Cells were incubated with diluted secondary antibody and washing buffer together at room temperature for 1 hour, then washed 3 times with the washing buffer for 5 minutes, followed by nuclear staining with DAPI (Roche Life Science, 10236276001) for 3 minutes.
as §1

Assay [3] relates to pgEpiSCs. Put plainly: Clone morphology and alkaline phosphatase (AP) staining of pgEpiSCs in modified 3i/LAF medium. To be noted: for clone morphology / AP staining after removal of the component: component removed from 3i/LAF medium.
Source text: The alkaline phosphatase staining for pgEpiSCs was based on the Alkaline Phosphatase Detection Kit (Millipore, SCR004).
The specific experimental steps followed the instructions for the kit.
as §1, §2
According to the 3i/LAF medium and its culture method prepared in 2 above, the inventors also investigated the effect of the adjusted or replaced medium on the long-term in vitro maintenance of pgEpiSCs on the basis of adjusting the concentrations of the small molecule inhibitors and cytokines or replacing the compositions of the small molecule inhibitors and cytokines in the culture medium one by one without altering the other conditions.
Experimental method: pgEpiSCs were cultured with the adjusted medium, after which AP staining was performed on the cultured pgEpiSCs of P1 (indicating the pgEpiSCs after 1 passage in the adjusted medium) or P3 (indicating the pgEpiSCs after 3 passages in the adjusted medium). The specific steps of AP staining are described in the section of Experimental Methods described previously.
Principle of the experiment: undifferentiated stem cells will express Ap at high level. By staining fixed stem cells, differentiated cells show no color and undifferentiated cells show purple or red color.

The test system of assay [4] is pgEpiSCs. Put plainly: Proliferation and passage of pgEpiSCs with FGF2 removed or varied. The note with it: for proliferation and passage of pgEpiSCs: FGF2 removed, with addition of PD0325901. The procedure: Porcine EpiSCs were cultured in 12-well plates. Cell samples were seeded in triplicate at a density of 2×10^4 cells per well. Cells were counted every 12 hours. Cells were digested and counted using the Luna™ automated cell counter at each time point. The results of the three counts were averaged and plotted. The cell doubling time was calculated as follows: Doubling Time (DT)=24×[lg2/(lgNt−IgN0)], where 24 was the cell culture time (hours); Nt was the number of cells cultured for 48 hours; and No was the number of cells recorded at 24 hours.
as §1

The test system of a further assay is phosphorylated STAT3. Put plainly: Western blot of phosphorylated STAT3 in pgEpiSCs. To be noted: with or without LIF; Western blotting. The procedure:
Total proteins in cells were extracted using cell lysis buffer (Beyotime Biotechnology, P0013), and nuclear and cytoplasmic proteins were extracted using a cell nucleus and cytoplasmic protein extraction kit (Beyotime Biotechnology, P0027) supplemented with protease and phosphatase inhibitors (P1050). The concentration of extracted proteins was measured using a Bradford protein detection kit (Bio-red, 5000201). An equal amount of proteins (15 μg) were separated by SDS-PAGE gel electrophoresis, and then transferred from the gel to the Immobilon-P transfer membrane (Merck Millipore; pore size: 0.45 μm; IPVH00010). The blots were blocked in 5% skim milk powder (Sangon Biotech, A600669-0250) in TBST (20 mM Tris, pH 7.5; 150 mM NaCl; 0.1% Tween 20) at room temperature for 1 hour, and then incubated with the antibody diluted in 5% skim milk powder in TBST at 4° C. overnight. The next day, the blots were rinsed 3 times with TBST for 5 minutes each time, and then incubated with HRP conjugated secondary antibody diluted in 5% skim milk powder in TBST at room temperature for 1 hour, and finally rinsed 3 times with TBST for 5 minutes each time. The blots were developed using SuperSignal® West Dura Extended Duration Substrate (Thermo Fisher Scientific, 34075), followed by analysis of the band strength of the target protein using the CLINX chemiluminescence software. […]

Setting [5] is: IWR-1-endo replaced in 3i/LAF medium.

“Also recorded” adds a separate entry of the source.

As to `Cc1c[nH]c(-c2cnc(NCCNc3ccc(C#N)cn3)nc2-c2ccc(Cl)cc2Cl)n1` [CHIR99021], the “marker gene mRNA expression after removal of the component” value (“marker gene mRNA expression” below) with pgEpiSCs [1] is “downregulated the expression of cell proliferation related genes such as LIN28A, C-MYC, ETV4 and ETV5”. The “expression of POU5F1 and GATA6 at high concentration” value in the assay on pgEpiSCs [1] (high concentration of CHIR99021 in 3i/LAF medium) was “downregulation of the pluripotency marker POU5F1 and significant upregulation of the endodermal marker GATA6; also recorded: the expression of the pluripotency gene POU5F1 was reduced, and the expression of the lineage differentiation gene GATA6 was upregulated, presenting a heterogeneous expression pattern”. The “expression levels of TBX3 and ESRRB” value in the assay on pgEpiSCs [1] (increasing concentration of CHIR99021 in 3i/LAF medium) is recorded as “increased with increasing concentration”.

As to `O=C(Nc1cccc2cccnc12)c1ccc(N2C(=O)[C@@H]3[C@H](C2=O)[C@@H]2C=C[C@H]3C2)cc1` [IWR-1-endo], the “marker gene mRNA expression” value in the assay on pgEpiSCs [1] was “significant downregulation of core pluripotency factors such as NANOG, POU5F1, SOX2 and REX1; also recorded: upregulation of the gastrulation formation marker genes BMP2, BMP4, EOMES and T”. Further, the “POU5F1 and EOMES immunostaining after removal of the component” value with pgEpiSCs [2] was “reduced or heterogeneous accumulation of the pluripotency factor POU5F1, while promoting the expression of the mesoderm and endoderm progenitor cell marker EOMES”. Further, the “clone morphology / AP staining after removal of the component” value with pgEpiSCs [3] was “unclear boundaries of pgEpiSC clones”.

As for `O=C(NOC[C@H](O)CO)c1ccc(F)c(F)c1Nc1ccc(I)cc1F` [PD0325901], in the assay with pgEpiSCs [4], the “proliferation and passage of pgEpiSCs” value is “could not proliferate or passage normally”.

Regarding `NC(=O)c1ccc(-c2nc(-c3ccc4c(c3)OCO4)c(-c3ccccn3)[nH]2)cc1` [SB431542], in the assay on pgEpiSCs [1] (inhibitor added to the medium), the “BMP4 and BMP downstream transcription factors ID2, ID3 after addition of the inhibitor” value is “significant increase in BMP4 and BMP downstream transcription factors (such as ID2 and ID3)”; the “NANOG levels after addition of the inhibitor” value is “significant decline in NANOG levels”; the “pluripotency markers POU5F1 and REX1 after addition of the inhibitor” value is “significant decrease in pluripotency markers (such as POU5F1 and REX1)”. Further, the “clone morphology after addition of the inhibitor” value in the assay with pgEpiSCs [3] (inhibitor added to the medium) was “irregular clone morphology”.

For `COc1ccc(N(C(=O)Oc2c(C)cccc2C)c2ccnc(Nc3ccc(N4CCN(C)CC4)cc3)n2)c(OC)c1` [WH-4-023], the “marker gene mRNA expression” value with pgEpiSCs [1] is “upregulation of the gastrulation formation marker genes BMP2, BMP4, EOMES and T”. For the same molecule, in the assay with pgEpiSCs [2], the “POU5F1 and EOMES immunostaining after removal of the component” value is “reduced or heterogeneous accumulation of the pluripotency factor POU5F1, while promoting the expression of the mesoderm and endoderm progenitor cell marker EOMES”.

For `Oc1nc(-c2ccc(C(F)(F)F)cc2)nc2c1CSCC2` [XAV939], in the assay on pgEpiSCs [1] (setting [5]), the “expression of core pluripotency factor OCT4 (POU5F1)” value is recorded as “downregulated”; the “expression of pluripotency factors REX1, STELLA, and ESRRB” value is given as “downregulated”. In the assay with pgEpiSCs [3] (setting [5]), the “maintenance of pluripotency after replacing IWR-1-endo” value was “unable to maintain pluripotency for a long time” and the “passages until AP positivity was lost” value was “around 8 passages”.

As to “FGF2: fibroblast growth factor; recombinant human FGF-basic, Peprotech 100-18B”, in the assay on pgEpiSCs [4], the “proliferation and passage of pgEpiSCs” value is recorded as “could not proliferate or passage normally”. For the same molecule, the “proliferation of pgEpiSCs at high concentration” value in the assay with pgEpiSCs [4] (high concentration of FGF2) is given as “cells proliferated faster at the high concentration”. In addition, in the assay on pgEpiSCs [4] (reduced concentration of FGF2, otherwise unchanged conditions), the “proliferation ability of pgEpiSCs at reduced concentration” value is on record as “significantly reduced the proliferation ability of pgEpiSCs”.

“LIF: cytokine of 3i/LAF; recombinant human LIF, PeproTech 300-05”: the “detection of phosphorylated STAT3” value in the assay on phosphorylated STAT3 is “phosphorylated STAT3 could only be detected in the presence of LIF”. For the same molecule, the “clone morphology / AP staining after removal of the component” value in the assay on pgEpiSCs [3] is on record as “not a necessary condition for maintaining the morphology of pgEpiSC clones”.

B1: Activin A: a member of the TGF-β superfamily; recombinant human Activin A, Peprotech 120-14E (protein, UniProt P08476 311-426, looked up)
Inhibin beta A chain: GLECDGKVNICCKKQFFVSFKDIGWNDWIIAPSGYHANYCEGECPSHIAGTSGSSLSFHSTVINHYRMRGHSPFANLKSCCVPTKLRPMSMLYYDDGQNIIKKDIQNMIVEECGCS
modifications: Inhibin beta A chain recombinant homodimer
Regarding B1, the “marker gene mRNA expression” value with pgEpiSCs [1] is “reduced levels of the pluripotency marker NANOG”.
